Test [1] has as its system NBD1. The test can be described thus: Aggregation analysis of NBD1 thermal stability by differential static light scattering (DSLS). The test is classed as binding, Human. The settings on record: 100 μM compound; ΔTagg versus DMSO control.
The subject of test [2] is Primary human bronchial epithelial cells from a ΔF508 homozygous CF donor (CF-HBE cells). Nature of the test: TECC24 recording of CFTR-mediated transepithelial chloride transport, AUC fold over DMSO. The test is classed as cell-based. The settings on record: 48 hours incubation, ratio of test agent AUC to vehicle AUC of forskolin-stimulated IEQ. How it is done: The effects of a test agent on CFTR-mediated transepithelial chloride transport was measured using TECC24 recording analysis. Test agents were solubilized in DMSO. Solubilized test agents were mixed with incubation medium containing DMEM/F12, Ultroser G (2%; Crescent Chemical, catalog #67042), Hyclone Fetal Clone 11 (2%; GE Healthcare, catalog #SH30066.02), bovine brain extract (0.25%; Lonza, catalog #CC-4098), insulin (2.5 μg/mL), IL-13 (10 ng/mL), hydrocortisone (20 nM), transferrin ([…]), triiodothyronine (500 nM), ethanolamine (250 nM), epinephrine (1.5 μM), phosphoethanolamine (250 nM), and retinoic acid (10 nM). Primary human bronchial epithelial cells from a ΔF508 homozygous CF donor (CF-HBE cells; from University of North Carolina Cystic Fibrosis Tissue Procurement Center), grown on Transwell HTS 24-well cell culture inserts (Costar, catalog #3378), were exposed to test agents or controls dissolved in incubation medium. The CF-HBE cells were cultured at 36.5° C. for 48 hours before TECC24 recordings were performed in the presence or absence of test agent, a positive control or vehicle (DMSO).
Following incubation, the transwell cell culture inserts containing the test agent or control-treated CF-HBE cells were loaded onto a TECC24 apparatus (TECC v7 or MTECC v2; EP Design) to record the transepithelial voltage (VT) and resistance (TEER) using 4 AgCl electrodes per well configured in current-clamp mode. The apical and basolateral bath solutions both contained (in mM) 140 NaCl, 5 KCl, 2 CaCl2), 1 MgCl2, 10 Hepes, and 10 glucose (adjusted to pH 7.4 with NaOH). To inhibit basal Na+ absorption, the ENaC inhibitor benzamil (10 μM) was added to the bath. Then, the adenylate cyclase activator, forskolin ([…]), was added to the bath to activate CFTR. The forskolin-stimulated Cl— transport was halted by addition of CFTR inhibitor-172 ([…]) to the bath at the end of the experiment to confirm specificity. […] Efficacy is expressed as the ratio of the test agent AUC divided by vehicle AUC. […]

Molecules are shown by their SMILES.

The record followed here is US20260242373A1, “NBD1 MODULATORS AND METHODS OF USING THE SAME” (Sionna Therapeutics Inc., priority 2023, published 2026).

Take `Cc1c(Oc2ccc(F)c(-c3nc(Cc4csc(CCC(=O)O)c4)c[nH]3)c2)c(F)cc2[nH]ccc12` [Compound 4, 3-(4-((2-(2-fluoro-5-((6-fluoro-4-methyl-1H-indol-5-yl)oxy)phenyl)-1H-imidazol-4-yl)methyl)thiophen-2-yl)propanoic acid]: the “DSLS NBD1/3D Human Stability delta-T (° C.) @ 100 (μM)” value (shortened to “DSLS NBD1/3D Human Stability delta-T”) in test [1] is recorded as “B (B: 4-8° C.)”. The “TECC24 @ 10 uM over DMSO” value in test [2] was “C (“C” refers to AUC @ 10 uM <=4)”.

As for `C[C@@H](c1nc(-c2cc(Oc3c(F)cc4[nH]ccc4c3F)ccc2F)n(C)n1)c1ccc(CCC(=O)O)s1` (single isomer, unassigned) [Compound 44], in test [1], the “DSLS NBD1/3D Human Stability delta-T” value is reported as “B (B: 4-8° C.)”. The “TECC24 @ 10 uM over DMSO” value in test [2] is recorded as “C (“C” refers to AUC @ 10 uM <=4)”.

As to `c1cc(Oc2ccc3[nH]ccc3c2)cc(-c2nnc(Cc3cccs3)[nH]2)c1` [Compound 10, 5-(3-(5-(thiophen-2-ylmethyl)-4H-1,2,4-triazol-3-yl)phenoxy)-1H-indole], in test [1], the “DSLS NBD1/3D Human Stability delta-T” value is recorded as “C (C: ≤4° C.)”. Besides, the “TECC24 @ 10 uM over DMSO” value in test [2] was “C (“C” refers to AUC @ 10 uM <=4)”.
